{"source": "paper PMC4179164", "about": "“Ophiobolin A from Bipolaris oryzae Perturbs Motility and Membrane Integrities of Porcine Sperm and Induces Cell Death on Mammalian Somatic Cell Lines” (Toxins, 2014)", "assay_type_in_all_cases": "cell-based", "key": {"[1]": {"test_system": "murine neuroblastoma (MNA) cells", "test": "Somatic cell toxicity assay (resazurin reduction), MNA", "conditions": "Mus musculus, read-out: IC50, cell proliferation", "procedure": "Viability assays, based on resazurin-resorufin transformation, represent excellent correlation to generally used reference assays, such as formazan- and tritiated thymidine based methods. In our experiments, proliferating murine neuroblastoma (MNA), feline fetus lung (FFL) and porcine kidney (PK-15) cells were treated with OPA. […] These values were remarkably less than the concentrations causing sperm toxicity and motility inhibition.\nCytotoxicity against somatic cells was tested with feline fetus lung cells (FFL) cultivated as described by Andersson et al. and murine neuroblastoma cells (MNA) as described by Kulonen et al. as well as porcine kidney tubular epithelial cell line (PK-15), cultured as reported earlier. All somatic cell lines were maintained in an atmosphere of 95% air, 5% CO2 and 95% relative humidity at 37 °C on RPMI 1640 (complete medium) in a cell culture cabinet (Heracell 150i; Thermo Fisher Scientific, Vantaa, Finland). The detached cells were seeded onto 96 well microtiter plates and exposed to the purified OPA, the final concentration of which ranged from 48.8 ng mL^−1 to 25 μg mL^−1 containing 10 levels in methanol. […] Then, the plates were analyzed by a microtiter plate reader (Fluoroskan Ascent, Thermo Scientific, Vantaa, Finland) at the excitation and emission wavelengths of 544 nm and 590 nm, respectively. […]"}, "[2]": {"test_system": "boar spermatozoa", "test": "Sperm motility inhibition assay (progressive and rapid motility)", "procedure": "Furthermore, their physiological characters including their motility are influenced mainly by membrane potentials and ion fluxes. Thus, the change of sperm motility is able to sensitively indicate the substances causing mitochondrial membrane depolarization even at sublethal doses, which is undetectable with other cell lines. Motility of the spermatozoa was judged after exposure of 30 min and 24 h at room temperature with minor modification of a previously described method.\nThe sperm motility inhibition assay was done as reported by Andersson et al.. Commercial boar semen obtained from Figen Oy Finland extended in MR-A (Kubus, S.A., Madrid, Spain) containing 27 × 10^6 spermatozoa·mL^−1 was used. The purified OPA was diluted by serial dilutions in methanol obtaining two ranges of concentrations with 4-4 levels from 2500 μg mL^−1 to 250.0 μg mL^−1 and from 50 μg mL^−1 to 5.0 μg mL^−1, for short and long time exposures, respectively. Twenty μL of each dilution was administered to 2 mL of MR-A-diluted boar semen resulting approximately 100 times dilution of the original stock solutions; 20 μL of methanol was added to spermatozoa in the same way as a blank assay. The samples were incubated for 30 min and 24 h at room temperature for short and long term exposure assays, respectively. After exposure, motility was induced in the sperm cells by incubation in 37 °C for 5 min and shaking to provide the sperm cells with oxygen. […]\nThe above described subjective motility assay was calibrated with an automatic Hamilton Thorne sperm motility analyzer (HTM-S, ver. 7.2; Hamilton-Thorn Research, Danvers, MA, USA). […] Thus the protocol for assessing sperm tail beating as a measure of motility inhibition gave 99% similarity to measurements of the proportion of rapidly motile spermatozoa done with Hamilton Thorne sperm analyzer (HTM-S, ver. 7.2; Hamilton-Thorn Research, Danvers, MA, USA) Toxicity was expressed as the endpoint concentration of the OPA solution, where the progressive and rapid motility of the sperm cells were <50% of the vehicle exposed sperm cells. […]"}, "[3]": {"test_system": "boar spermatozoa", "test": "Dissipation of mitochondrial membrane potential (ΔΨm), JC-1 staining", "procedure": "The membrane-permeable 5,5',6,6'-tetrachloro-1,1',3,3'-tetraethylbenzimidazolylcarbocyanine iodide (JC-1) dye is widely used in apoptosis studies to monitor mitochondrial health. […] Therefore, the loss of ΔΨm was seen as decrease in orange fluorescence. In our cases, the staining for […] with JC-1 at 37 °C was enough to get the energized mitochondria stained orange and the plasma membrane green. This short staining was empirically optimized for getting the most reproducible differences between vehicle and toxin exposed sperm cells in Hoornstra et al.. After 2 min incubation, OPA completely depolarized the mitochondrial membrane of the sperm cells at the concentration of 1.25 μg mL^−1 and the exposed cells have already lost approximately 50% of their bright fluorescing mitochondria at the concentration of 500 ng mL^−1 (Figure 3, Table 1).\nThe dissipation of the ΔΨm on static cells at room temperature was visualized by 5,5',6,6'-tetrachloro-1,1',3,3'-tetraethylbenzimidazolylcarbocyanine iodide (JC-1) (Molecular Probes, Eugene, OR, USA) staining according to Hoornstra et al. with minor modifications as follows: 200 μL of the boar semen exposed with the final OPA concentration of 2.5 μg mL^−1, 1.25 μg mL^−1, 0.5 μg mL^−1 and 0.125 μg mL^−1 was incubated at 37 °C for 2 min, stained with 0.3 μL of JC-1 (1 mg mL^−1 in DMSO) followed by another 2 min at 37 °C and viewed using an epifluorescence microscope (Eclipse E600, Nikon, Tokyo, Japan). All assays (PI + CAM and JC-1 staining) were performed in triplicate and for each sample five microscopic fields containing ca. 20 cells were inspected."}}}
{"smiles": "CC(C)=C[C@H]1C[C@H](C)[C@]2(CC[C@]3(C)C[C@H]4[C@H](C(=O)C[C@@]4(C)O)/C(C=O)=C\\C[C@H]32)O1", "note": "[OPA, ophiobolin A]", "values": [{"measurement": "IC50", "setting": "[1]", "value": "< 0.0488", "unit": "µg/mL"}, {"measurement": "EC50", "setting": "[2]; 0.5 h, boar spermatozoa, 30 min exposure at room temperature, read-out: Toxic endpoint EC50, Motility inhibition (30 min)", "value": "≤ 2.5", "unit": "µg/mL"}, {"measurement": "EC50", "setting": "[2]; 24 h, read-out: Toxic endpoint EC50, Motility inhibition (24 h), boar spermatozoa, 24 h exposure at room temperature", "value": 0.25, "unit": "µg/mL"}, {"measurement": "Effect on JC-1 mitochondrial fluorescence", "setting": "[3]; 125 ng mL^−1 OPA, JC-1 staining", "value": "minimal difference compared to the untreated control"}, {"measurement": "Loss of bright fluorescing mitochondria", "setting": "[3]; 500 ng mL^−1 OPA, JC-1 staining", "value": "approximately 50%"}, {"measurement": "Concentration completely depolarizing the mitochondrial membrane of the sperm cells", "setting": "[3]; JC-1 staining, 2 min incubation at 37 °C", "value": 1.25, "unit": "µg/mL"}, {"measurement": "EC50", "setting": "[3]; Spermatozoa, read-out: Toxic endpoint EC50, Dissipation of ΔΨm", "value": 0.5, "unit": "µg/mL"}]}
